Test results taken from PubChem BioAssay (NCI).
Where “and” joins values, the source holds several entries; their conditions need not be identical. Identical values can stand only once.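 Results reflect a 48-hour exposure of cells in 96-well plates to compound at five concentrations. GI50 is the concentration that inhibits growth by half. The concentration for full growth arrest is given as TGI.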

Key:
Test in all cases: inhibition of tumour cell growth, NCI panel, 48 h
[1] = test system: NCI-H23 lung
[2] = test system: KM20L2 colon
[3] = test system: SN12C renal
[4] = test system: ACHN renal
[5] = test system: UO-31 renal
[6] = test system: M19-MEL melanoma
[7] = test system: A498 renal
[8] = test system: NCI-H460 lung
[9] = test system: OVCAR-5 ovarian
[10] = test system: SNB-19 CNS
[11] = test system: XF 498 CNS
[12] = test system: TK-10 renal
[13] = test system: SK-MEL-2 melanoma
[14] = test system: UACC-62 melanoma
[15] = test system: RPMI-8226 leukemia
[16] = test system: K-562 leukemia
[17] = test system: MOLT-4 leukemia
[18] = test system: SF-295 CNS
[19] = test system: SK-MEL-5 melanoma
[20] = test system: DLD-1 colon
[21] = test system: HL-60(TB) leukemia
[22] = test system: NCI-H522 lung
[23] = test system: OVCAR-4 ovarian
[24] = test system: KM12 colon
[25] = test system: SF-539 CNS
[26] = test system: LOX IMVI melanoma
[27] = test system: MALME-3M melanoma
[28] = test system: U251 CNS
[29] = test system: SNB-78 CNS
[30] = test system: RXF 393 renal
[31] = test system: HCT-116 colon
[32] = test system: UACC-257 melanoma
[33] = test system: OVCAR-8 ovarian
[34] = test system: HOP-62 NSCLC
[35] = test system: CCRF-CEM leukemia
[36] = test system: M14 melanoma
[37] = test system: SNB-75 CNS
[38] = test system: SR leukemia
[39] = test system: HOP-18 NSCLC
[40] = test system: HOP-92 NSCLC
[41] = test system: DMS 273 small cell lung
[42] = test system: EKVX NSCLC
[43] = test system: SK-OV-3 ovarian
[44] = test system: HCT-15 colon
[45] = test system: SW-620 colon
[46] = test system: A549 NSCLC
[47] = test system: OVCAR-3 ovarian
[48] = test system: CAKI-1 renal
[49] = test system: HCC-2998 colon
[50] = test system: DMS 114 small cell lung
[51] = test system: SF-268 CNS
[52] = test system: COLO 205 colon
[53] = test system: NCI-H226 lung
[54] = test system: SK-MEL-28 melanoma
[55] = test system: HT29 colon
[56] = test system: IGROV1 ovarian
[57] = test system: 786-0 renal
[58] = test system: HS 578T breast
[59] = test system: T-47D breast
[60] = test system: PC-3 prostate
[61] = test system: NCI/ADR-RES ovarian
[62] = test system: BT-549 breast
[63] = test system: DU-145 prostate
[64] = test system: MDA-MB-435
[65] = test system: MCF7 breast
[66] = test system: LXFL 529 NSCLC
[67] = test system: MDA-N
[68] = test system: MDA-MB-231 breast

For `CC(=O)C1=C(C)NC2C=CC=CN12` (centres undefined), the TGI [1] was > 100 µM, the TGI [2] was > 100 µM and the TGI [3] was > 100 µM. For the same molecule, the TGI [4] was > 100 µM, the TGI [5] was > 100 µM and the TGI [6] was > 100 µM. The TGI [7] was > 100 µM, the TGI [8] was > 100 µM and the TGI [9] was > 100 µM. For the same molecule, the TGI [10] was > 100 µM, the TGI [11] was > 100 µM and the TGI [12] was > 100 µM. The TGI [13] was > 100 µM, the TGI [14] was > 100 µM and the TGI [15] was > 100 µM. The TGI [16] was > 100 µM, the TGI [17] was > 100 µM and the TGI [18] was > 100 µM. For the same molecule, the TGI [19] was > 100 µM, the TGI [20] was > 100 µM and the TGI [21] was > 100 µM. For the same molecule, the TGI [22] was > 100 µM, the TGI [23] was > 100 µM and the TGI [24] was > 100 µM. The TGI [25] was > 100 µM, the TGI [26] was > 100 µM and the TGI [27] was > 100 µM. The TGI [28] was > 100 µM, the TGI [29] was > 100 µM and the TGI [30] was > 100 µM. The TGI [31] was > 100 µM, the TGI [32] was > 100 µM and the TGI [33] was > 100 µM. The TGI [34] was > 100 µM, the TGI [35] was > 100 µM and the TGI [36] was > 100 µM. The TGI [37] was > 100 µM, the TGI [38] was > 100 µM and the TGI [39] was > 100 µM. The TGI [40] was > 100 µM, the TGI [41] was > 100 µM and the TGI [42] was > 100 µM. For the same molecule, the TGI [43] was > 100 µM, the TGI [44] was > 100 µM and the TGI [45] was > 100 µM. For the same molecule, the TGI [46] was > 100 µM, the TGI [47] was > 100 µM and the TGI [48] was > 100 µM. For the same molecule, the TGI [49] was > 100 µM, the TGI [50] was > 100 µM and the TGI [51] was > 100 µM. The TGI [52] was > 100 µM, the TGI [53] was > 100 µM and the TGI [54] was > 100 µM. For the same molecule, the TGI [55] was > 100 µM, the TGI [56] was > 100 µM and the TGI [57] was > 100 µM.
For `COc1cc(CNc2ccc(SC)cc2)cc(OC)c1OC`, the GI50 [1] was 14.6 µM and 6.14 µM, the TGI [1] was 44 µM and 46.7 µM and the TGI [2] was 19.5 µM and 23.3 µM. The TGI [58] was > 77.7 µM, the GI50 [59] was 24.7 µM and 7.05 µM and the TGI [59] was > 100 µM and 69.8 µM. For the same molecule, the TGI [60] was > 100 µM and 47.7 µM, the GI50 [3] was 19.3 µM and 9.07 µM and the TGI [3] was > 100 µM. For the same molecule, the GI50 [4] was 22.8 µM and 11 µM, the TGI [4] was > 100 µM and the TGI [5] was 83.1 µM and 51.1 µM. For the same molecule, the TGI [7] was 79.4 µM and 67.7 µM, the TGI [8] was > 100 µM and the TGI [9] was > 92.1 µM and 87.3 µM. The GI50 [10] was 25.4 µM and 10.1 µM, the TGI [10] was > 100 µM and the GI50 [11] was 23.4 µM and 11.1 µM. The TGI [11] was 91.2 µM and 40 µM, the GI50 [12] was 41 µM and 16.7 µM and the TGI [12] was > 93.3 µM and 77.5 µM. For the same molecule, the TGI [61] was 23.9 µM and > 22.6 µM, the TGI [13] was 46 µM and > 50.6 µM and the GI50 [14] was 10.7 µM and 4.64 µM. For the same molecule, the TGI [14] was > 80.7 µM and 51.1 µM, the TGI [15] was > 78.3 µM and 66.2 µM and the GI50 [16] was 3.99 µM and 1.49 µM. For the same molecule, the TGI [16] was 44.9 µM and > 63.6 µM, the TGI [17] was > 100 µM and the GI50 [18] was 8.24 µM and 3.57 µM. For the same molecule, the TGI [18] was 53.8 µM and 22.1 µM, the GI50 [19] was 11.6 µM and 4.51 µM and the TGI [19] was 59.6 µM and 16 µM. The GI50 [20] was 12 µM and 5.85 µM, the TGI [20] was > 100 µM and the TGI [21] was 42.6 µM and 40.2 µM. The TGI [22] was 29.3 µM and 11 µM, the TGI [23] was > 100 µM and the GI50 [62] was 9.13 µM. For the same molecule, the TGI [62] was > 100 µM, the GI50 [24] was 4.44 µM and 2.21 µM and the TGI [24] was > 62.7 µM and 20.7 µM. For the same molecule, the GI50 [25] was 11.4 µM and 3.06 µM, the TGI [25] was 44.4 µM and 12.3 µM and the GI50 [63] was 24.8 µM and 7.82 µM. For the same molecule, the TGI [63] was > 95.7 µM, the TGI [26] was > 59.7 µM and 45.9 µM and the TGI [27] was > 100 µM. The GI50 [28] was 10.8 µM and 4.13 µM, the TGI [28] was 61.6 µM and 32.9 µM and the TGI [29] was > 100 µM. The GI50 [30] was 2.27 µM and 6.5 µM, the TGI [30] was 39.6 µM and 42.7 µM and the GI50 [64] was 1.67 µM and 0.638 µM. For the same molecule, the TGI [64] was 80 µM, the TGI [31] was 51.1 µM and 35.4 µM and the TGI [65] was > 100 µM. The GI50 [32] was 24.9 µM and 9.7 µM, the TGI [32] was > 91.7 µM and 41.8 µM and the GI50 [33] was 27.1 µM and 7.69 µM. The TGI [33] was > 92.6 µM and 56 µM, the GI50 [34] was 12.1 µM and 4.68 µM and the TGI [34] was > 100 µM and 61.1 µM. For the same molecule, the TGI [66] was > 100 µM, the TGI [35] was > 90.6 µM and the GI50 [36] was 5.28 µM. The TGI [36] was > 47 µM and 37.9 µM, the GI50 [37] was 15.7 µM and 6.28 µM and the TGI [37] was 86.3 µM and 65.5 µM. For the same molecule, the GI50 [38] was 4.17 µM and 1.63 µM, the TGI [38] was > 100 µM and the TGI [39] was > 100 µM. The GI50 [40] was 15.2 µM and 6.16 µM, the TGI [40] was > 96.1 µM and 47.6 µM and the TGI [41] was 28.1 µM and > 36.7 µM. For the same molecule, the TGI [42] was > 100 µM, the GI50 [43] was 15.4 µM and 5.05 µM and the TGI [43] was 64.2 µM and 44.6 µM. The GI50 [67] was 3.35 µM and 1.05 µM, the TGI [67] was 7.15 µM and the GI50 [68] was 15 µM and 6.23 µM. The TGI [68] was > 100 µM, the TGI [44] was 57.5 µM and 78.2 µM and the TGI [45] was > 100 µM. The TGI [46] was > 100 µM, the TGI [47] was 54.1 µM and 19.6 µM and the GI50 [48] was 22.5 µM and 11.1 µM. For the same molecule, the TGI [48] was > 97.1 µM, the GI50 [49] was 11 µM and 4.92 µM and the TGI [49] was > 60 µM and 26.6 µM. The TGI [50] was 20.9 µM and 8.02 µM, the GI50 [51] was 19.9 µM and 7.47 µM and the TGI [51] was > 100 µM and 69.3 µM. The TGI [52] was 12.8 µM and 12.4 µM, the GI50 [53] was 26.4 µM and 11.9 µM and the TGI [53] was > 100 µM and 84.7 µM. For the same molecule, the GI50 [54] was 23.7 µM and 5.71 µM, the TGI [54] was 99.4 µM and > 76.9 µM and the TGI [55] was 29.9 µM and 14.5 µM. For the same molecule, the GI50 [56] was 17.2 µM and 7.73 µM, the TGI [56] was > 82.1 µM and 71.6 µM and the TGI [57] was 77.2 µM and 65.8 µM.
